Assays:
p-ERK = experiment: Immunohistochemistry of B16F10 tumors (Day 17), p-ERK; type: in vivo, mouse; conditions: B16F10 tumors Day 17, 200 mg/kg i.p.
Excerpt: Immunohistochemical staining and analyses. Rabbit monoclonal anti-CD3 (cat. no. ab16669; mouse, rat and human reactive), rabbit monoclonal anti-PD-1 (cat. no. ab214421), rabbit monoclonal anti-CD68 (cat. no. ab125212) antibodies were obtained from Abcam, rabbit monoclonal anti-phospho-ERK (Thr^202/Tyr^204) (cat. no. CST4370), rabbit monoclonal total ERK (cat. no. CST4695), antibodies were obtained from Cell Signaling Technology. Rabbit polyclonal anti-PD-L1 (cat. no. PA5-20343) antibody was obtained from ThermoFisher.
Formalin fixed, paraffin embedded sections were prepared from tumors. Heat-induced epitope retrieval was applied to all deparaffinized sections (4 μm sections on Superfrost slides) with citrate buffer, pH 6.0 for 5 min at 110° C. […] Integrated optical density (IOD) or area of positive staining (red chromagen) was assessed using Image-Pro Plus software (Cybernetics, Bethesda, MD, USA). Positive staining was the average of quantitation in 4-8 fields of view under 20× or 40× objectives.
To assess the effect of BT2 in the same model, C57BL/6J mice bearing s.c. B16F10 tumors were administered with BT2 or vehicle (200 mg/kg or 20 ml/kg, respectively, i.p.) once a day on a 5 days-on/2 days-off schedule. […] Tumor size on Day 17 measured using callipers (FIG. 10A) correlated with isolated weighed tumors (FIG. 10B).

PD-1 = experiment: Western blotting for PD-1, Jurkat T cells; type: cell-based, human; conditions: various concentrations, 24 h
Procedure: (§1) Western blotting. Cells were treated with compounds and times indicated and total cell lysates were prepared in RIPA buffer. Lysates (10 μg) were resolved by SDS-PAGE and transferred to Immobilon-P polyvinylidene difluoride (PVDF) membranes (Millipore, USA).
(§2) Membranes were blocked with 5% skim milk and incubated with rabbit monoclonal anti-c-Jun (Abcam, cat. no. ab32137; mouse, rat and human reactive) antibody, rabbit monoclonal anti-PD-1 (Abcam, cat. no. ab214421) antibody, mouse monoclonal β-actin antibody (Sigma-Aldrich, cat. no. A5316), anti-phospho-SAPK/JNK (Thr^183/Tyr^185) (98F2) (CST, cat. no. 4671) antibody, anti-phospho-p44/42 MAPK (ERK1/2) (Thr^202/Tyr^204) (D13.14.4E) (CST, cat. no. 4370) antibody, anti-phospho-p38 MAPK (Thr^180/Tyr^182) (D3F9) (CST, cat. no. 4511) antibody, anti-SAPK/JNK antibody (CST, cat. no. 9252), anti-p44/42 MAPK (ERK1/2) (137F5) antibody (CST, cat. no. 4695), anti-p38 MAPK antibody (CST, cat. no. 9212), anti-DUSP8 antibody (Abcam, cat. no. ab198175) or anti-c-MAF (BLR045F) antibody (Abcam, cat. no. ab243901). This was followed by incubation with horseradish peroxidase-conjugated secondary goat anti-rabbit (DAKO, cat. no. P0448) or goat anti-mouse (DAKO, cat. no. P0447) antibody. Chemiluminescence was detected using the Western Lightning Chemiluminescence system (Thermo Scientific, USA) and ImageQuant™ LAS 4000 biomolecular imager (GE Healthcare Life Sciences, USA). Band intensity in images generated with the LAS 4000 was quantified using NIH Image J.

JUN = experiment: Western blotting time course for JUN, Jurkat T cells; type: cell-based, human; conditions: Western blot time course
Procedure: as §1
as §2, with “This was followed by incubation with horseradish peroxidase-conjugated secondary goat anti-rabbit (DAKO, cat. no. P0448) or goat anti-mouse (DAKO, cat. no. P0447) antibody.” left out, “J. […]” for “J.”

CCOC(=O)Nc1ccc2c(c1)C(=O)N(CC)c1ccccc1O2 [BT2, (10-ethyl-11-oxo-10,11-dihydro-dibenzo[b,f][1,4]oxazepin-2-yl)-carbamic acid ethyl ester]
ERK phosphorylation in tumors (IHC) (p-ERK): suppression of ERK phosphorylation
PD-1 expression (Western blot) (PD-1): suppressed by BT2 in a dose-dependent manner
time to induction of JUN at the protein level (JUN): 2 to 4 h

From patent US20250352555A1, “METHOD OF INCREASING IMMUNE CELL ACTIVATION AND/OR TREATING CANCER USING DIBENZOXAZEPINONES” (VASCULAR THERAPEUTICS PTY LTD, priority 2022, published 2025)
